Changes are numbered by the printed parent chain. Where “and” joins values, the source holds several entries; their conditions need not be identical. Equal values may be shown once.
Tests used:
[1] = target: T1, TPα (Homo sapiens, UniProt P21731); assay: Agonist-mediated TP phosphorylation in whole cells, HEK.TPα; assay type: cell-based; conditions: 1 μM U46619 10 min, [32P]orthophosphate labelling, PhosphorImage
T1 construct: expressed in transfected cells
T1 sequence (P21731 1-343): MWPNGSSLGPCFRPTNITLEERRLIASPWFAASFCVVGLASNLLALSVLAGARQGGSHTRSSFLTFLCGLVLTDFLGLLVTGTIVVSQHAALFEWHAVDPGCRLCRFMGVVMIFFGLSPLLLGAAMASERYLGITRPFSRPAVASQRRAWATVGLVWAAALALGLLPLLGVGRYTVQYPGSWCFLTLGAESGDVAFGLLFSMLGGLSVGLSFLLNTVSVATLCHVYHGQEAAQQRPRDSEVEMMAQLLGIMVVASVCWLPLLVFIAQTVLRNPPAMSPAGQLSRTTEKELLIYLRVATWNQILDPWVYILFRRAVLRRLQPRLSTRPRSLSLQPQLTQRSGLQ
Procedure: (§1) Agonist-mediated TP phosphorylation in whole cells (1.8–2 × 10^6 cells/10 cm dish) was performed essentially as previously described. Briefly, cells were transiently co-transfected with pADVA (10 μg), pCMV:Gαq (25 μg) plus pcDNA:βArrestin2 (25 μg) approximately 48 h prior to labelling. Thereafter, cells were washed once in phosphate-free DMEM, 10% dialysed FBS and were metabolically labelled for 60 min in the same medium (2 ml/10 cm dish) containing 100 μCi/ml [^32P] orthophosphate (8000–9000 Ci/mmol) at 37 °C, 5% CO2. Where appropriate, the PKG kinase inhibitor KT 5823 (50 nM) or its vehicle was added during the labelling period. Thereafter, U46619 (1 μM) or an equivalent volume of vehicle (0.01% ethanol in HBS; 20 μl) were added and cells were incubated for 10 min at 37 °C, 5% CO2. Reactions were terminated by transferring the dishes to ice and aspirating the labelled medium and HA-epitope tagged TP receptors were processed and immunoprecipitated using the anti-HA 101R antibody as previously described. Electroblots were then exposed to Xomat XAR (Kodak) film to detect ^32P-labelled proteins. Thereafter, blots were subject to phosphorimage analysis, and the intensities of agonist-induced phosphorylation were expressed in arbitrary units relative to basal (vehicle-stimulated) levels. In parallel experiments, cells were incubated under identical conditions in the absence of [^32P] orthophosphate; HA-tagged TP receptors were immunoprecipitated from the same cell lines using the anti-HA 101R antibody and immunoblots were screened using the anti-HA 3F10 horseradish peroxidase-conjugated antibody.

[2] = target: T2, TPα^S331,T337A (Homo sapiens, UniProt P21731, S331A/T337A); assay: Agonist-mediated TP phosphorylation in whole cells, HEK.TPα^S331,T337A; assay type: cell-based; conditions: 1 μM U46619 10 min
T2 construct: expressed in transfected cells
T2 sequence (P21731 1-343 S331A/T337A): T1 sequence (P21731 1-343) with S331A, T337A
Procedure: as §1, with “In parallel experiments, cells were incubated under identical conditions in the absence of [^32P] orthophosphate; HA-tagged TP receptors were immunoprecipitated from the same cell lines using the anti-HA 101R antibody and immunoblots were screened using the anti-HA 3F10 horseradish peroxidase-conjugated antibody.” left out

[3] = target: T3, TPα^S145A (Homo sapiens, UniProt P21731, S145A); assay: [3H]SQ29,548 radioligand binding, Scatchard analysis, HEK.TPα^S145A
T3 construct: expressed in transfected cells
T3 sequence (P21731 1-343 S145A): T1 sequence (P21731 1-343) with S145A
Procedure: (§2) Cells were harvested by centrifugation at 500×g at 4 °C for 5 min and washed three times with ice-cold Ca^2+/Mg^2+-free phosphate-buffered saline (PBS). TP radioligand binding assays were carried out at 30 °C for 30 min in 100 μl reactions in the presence of 0–40 nM [^3H] […] Protein determinations were carried out using the Bradford assay.
(§3) Radioligand binding and Scatchard analysis data were analysed using GraphPad Prisim V4.0 programme (GraphPad Software Inc., San Diego CA, USA). Statistical analyses were carried out using the unpaired Student's t test using the Statworks Analysis Package. p-values ≤ 0.01 indicated statistically significant differences.

[4] = target: T4, TP^Δ328 (Homo sapiens, UniProt P21731); assay: [3H]SQ29,548 radioligand binding, Scatchard analysis, HEK.TP^Δ328
T4 construct: expressed in transfected cells
T4 sequence (P21731 1-328): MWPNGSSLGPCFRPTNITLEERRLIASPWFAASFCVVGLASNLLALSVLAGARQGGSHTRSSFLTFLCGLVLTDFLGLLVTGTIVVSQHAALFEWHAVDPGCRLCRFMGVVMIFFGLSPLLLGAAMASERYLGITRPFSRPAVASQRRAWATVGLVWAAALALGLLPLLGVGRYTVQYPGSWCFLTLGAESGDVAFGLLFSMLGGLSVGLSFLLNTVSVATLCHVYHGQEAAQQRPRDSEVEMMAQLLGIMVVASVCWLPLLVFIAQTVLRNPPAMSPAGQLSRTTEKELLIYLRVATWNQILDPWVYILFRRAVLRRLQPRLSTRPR
Procedure: as §2, §3

CCCCC[C@H](O)/C=C/[C@@H]1[C@@H](C/C=C\CCCC(=O)O)[C@H]2CO[C@@H]1C2 [U46619]
U46619-mediated TPα phosphorylation relative to basal (vehicle) [1]: 5–7 fold and 5 fold
U46619-induced phosphorylation of TPα^S331,T337A [2]: failed to undergo significant U46619-induced phosphorylation above basal levels

O=C(O)CCC/C=C\C[C@@H]1[C@H](CNNC(=O)Nc2ccccc2)[C@H]2CC[C@@H]1O2 [SQ29,548]
Bmax (pmol/mg protein ± S.E.M.) [3]: 3.03 ± 0.04 pmol/mg protein
Bmax (pmol/mg protein ± S.E.M.) [4]: 4.47 ± 0.04 pmol/mg protein

— publication PMC2680961, “Homologous desensitization of signalling by the alpha (α) isoform of the human thromboxane A2 receptor: A specific role for nitric oxide signalling” (Biochimica et Biophysica Acta, 2007)
